Source: patent US20150072933A1, “NOVEL SEQUENCES FOR THE CONTROL OF REPRODUCTION IN FISH” (Yissum Research Development Company of the Hebrew …, priority 2011, published 2015)
Entries after “also recorded” stand apart in the source; their conditions may differ. *1 amine or outer side, *2 acyl side, *3 side chain or, on linkers, in order; H or OH if unused. Where a SMILES comes first, the peptide text is derived from it. [ ]: non-standard residue; d: D form. NMeF = CN[C@@H](Cc1ccccc1)C(=O)O; Suc = O=C(CCC(=O)[*:2])[*:1]; NMeV = CN[C@H](C(=O)O)C(C)C

Assays:
[1] = tested on: zfTac3ra; assay: Receptor transactivation assay, CRE-Luc reporter (PKA activation), COS-7 cells expressing zfTac3ra; format: cell-based, zebrafish; conditions: mean ± SEM
Procedure: (§1) In order to study the signaling pathways of the novel zebrafish NKBs, the entire coding regions of zftac3ra (denoted by SEQ ID NO:6) or zftac3rb (denoted by SEQ ID NO:7), or the cDNA clone for human NK3R (obtained from the Missouri S&T cDNA Resource Center, were inserted into pcDNA3.1 (Invitrogen). The luciferase assay was conducted according to Biran et al., 2008 [4] COS-7 cells were grown in DMEM supplemented with 10% FBS, 1% glutamine, 100 U/ml penicillin, and […] streptomycin (Biological Industries) under 5% CO2 until confluent. Cotransfection of either pc-zftac3ra, pc-zftac3rb or pc-Htac3r (at 3 μg/plate), a reporter plasmid (at 2 μg/plate), and pCMV-β-galactosidase (at 1 μg/plate) was carried out with FuGENE 6.0 reagent (Roche). The cells were serum starved for 36 h, stimulated with vehicle or various concentrations of either human (Sigma) or zebrafish NKBs for 6 h, and then harvested and analyzed. Lysates prepared from the harvested cells were assayed for both luciferase activity and β-galactosidase activity, which was used as an internal standard to normalize the luciferase activity directed by the test plasmid. Transfection experiments were performed in triplicate with three independently isolated sets. Protein structure prediction of zebrafish NKBa, NKBb or NKF were performed on I-Tasser servers.
(§2) The response, binding selectivity and signal transduction pathways of the novel tachykinin receptors to their agonists were evaluated by functional expression analysis, using COS-7 cells.
(§3) The NKB analogues (i.e. the NKBa-analog, NKBb-analog and NKF-analog, as denoted by SEQ ID NO. 44-46) were first analyzed in comparison to their native forms in a transactivation assay, using reporter genes for specific signal transduction pathways. To validate the specificity of the serum-responsive element (SRE)-Luc and cAMP-responsive element (CRE)-Luc reporter systems, specific activators for PLC/PKC and AC/PKA signaling pathways were used in control experiments.
(§4) Thus, the ability of the three novel piscine peptides (namely, NKBa, NKBb and NKF, denoted by SEQ ID NO.40, 41 and 42), as well as the ability of the three analogous agonistic peptides, namely, NKBa-analog, NKBb-analog and NKF-analog, to differentially activate the different tac3 receptors, using SRE as a reporter gene that follows PKC activation and CRE as a reporter gene for the PKA pathway, was tested. Human NK3R (human NKB receptor) and human NKB served as controls.

[2] = tested on: zfTac3rb; assay: Receptor transactivation assay, CRE-Luc reporter (PKA activation), COS-7 cells expressing zfTac3rb; format: cell-based, zebrafish; conditions: mean ± SEM
Procedure: as §1, §2, §3, §4

[3] = tested on: zfTac3ra; assay: Receptor transactivation assay, SRE-Luc reporter (PKC activation), COS-7 cells expressing zfTac3ra; format: cell-based, zebrafish; conditions: mean ± SEM
Procedure: as §1, §2, §3, §4

[4] = tested on: zfTac3rb; assay: Receptor transactivation assay, SRE-Luc reporter (PKC activation), COS-7 cells expressing zfTac3rb; format: cell-based, zebrafish; conditions: mean ± SEM
Procedure: as §1, §2, §3, §4

[5] = tested on: sexually mature female zebrafish; assay: In vivo effect of NKBs in zebrafish: LH secretion after intraperitoneal injection; conditions: single intraperitoneal injection, 20 pmol/g body weight, sexually mature female zebrafish
Procedure: In vivo studies involved administering NKBa, NKBb or NKF and the analogues thereof, denoted by SEQ ID NO. 40-42 and 44-46, respectively to immature fish (20 fish/treatment). The circulating levels of E2, 11KT, LH and FSH were determined prior to hormonal manipulations, in order to confirm that these fish were indeed sexually immature. The fish were injected intramuscularly (i.m.) or intraperitonealy (i.p.) at various doses. Adult female zebra fish were injected intraperitoneally with 20 pmol/g body weight. Control fish were injected with saline. Plasma samples were collected at time 0, and specific times after the administration of the peptide/s, to determine the levels of E2, 11KT, LH and FSH.
To further characterize the role of the NKB/NKBR system in fish reproduction the in vivo biological function of zebrafish NKB peptides was next examined.

[6] = tested on: NK-2; conditions: GPI; cited from earlier work
[7] = tested on: Juvenile Tilapia; assay: Gonadotropin release in vivo from juvenile tilapia (plasma LH and FSH by ELISA); set-up: species or system Tilapia (Oreochromis niloticus); conditions: Juvenile Tilapia, injected at 0.5 or 5 μg/Kg BW
Procedure: Tilapia females (two-months old) were injected with the NKBa analogue denoted by SEQ ID NO.44 or the NKF analogue denoted by SEQ ID NO.46 at 0.5 or 5 μg/kg body weight (BW). Blood was withdrawn from the caudal vein and plasma Luteinizing hormone (LH) and Follicle-stimulating hormone (FSH) levels were measured using a homologous sensitive enzyme-linked immunosorbent assay (ELISA), as described by Aizen et al. 2007 [33].

[8] = tested on: Tilapia pituitary cells; assay: Gonadotropin release from tilapia pituitary dispersed cells; format: cell-based; conditions: 10 nM, 4 hr
Procedure: Tilapia pituitary cells were subjected to enzymatic dispersion. Pituitary cells were stimulated with 10 nM of the NKBa or NKF analogue, denoted by SEQ ID NO.44 and SEQ ID NO.46, respectively, for 4 hr, when the medium was collected. […] Stimulation of tilapia pituitary cells with GnRH at [10 nM] was used as a control.

[9] = tested on: Mature female carp; assay: Gonadotropin release from mature carp in vivo (LH by ELISA); conditions: mature female carp just before spawning, injected 20 μg/kg body weight; listed as NKBa analogue
Procedure: Mature female carp, just before spawning, were injected with NKBa, NKBb and NKF analogues, denoted by SEQ ID NO.44, SEQ ID NO.45 and SEQ ID NO.46, respectively (20 μg/kg body weight). LH levels was measured by specific ELISA, according to Aizen et al. 2012 [33].

[10] = Table 6 (native peptides and analogues), PKA activation, read-out: EC50 using CRE-Luc, zfTac3ra
[11] = Table 6 (native peptides and analogues), PKA activation, read-out: EC50 using CRE-Luc, zfTac3rb
[12] = Table 7 (native peptides and analogues), PKC activation, read-out: EC50 using SRE, zfTac3ra
[13] = Table 7 (native peptides and analogues), PKC activation, read-out: EC50 using SRE, zfTac3rb

EC50 ([2]; Table 6 (native peptides and analogues), PKA activation, listed as NKBa-analog, read-out: EC50 using CRE-Luc, zfTac3rb) | SMILES | EC50 ([1]; Table 5, COS-7 cells, CRE-Luc follows PKA activation, read-out: EC50 CRE-Luc zfTac3ra) | EC50 [1, 10] | EC50 ([2]; Table 5, COS-7 cells, CRE-Luc follows PKA activation, read-out: EC50 CRE-Luc zfTac3rb) | EC50 [2, 11] | EC50 ([3]; Table 5, COS-7 cells, SRE-Luc follows PKC activation, read-out: EC50 SRE-Luc zfTac3ra) | EC50 [3, 12] | EC50 ([4]; Table 5, COS-7 cells, SRE-Luc follows PKC activation, read-out: EC50 SRE-Luc zfTac3rb) | EC50 [4, 13] | LH secretion [5] | EC50 [6] | FSH secretion [7] | LH secretion [7] | release of FSH from tilapia pituitary cells [8] | LH level [9]
 | CSCC[C@H](NC(=O)[C@H](CC(C)C)NC(=O)CNC(=O)[C@H](Cc1ccccc1)N(C)C(=O)[C@H](Cc1ccccc1)NC(=O)[C@H](CC(=O)O)NC(=O)CCC(=O)O)C(N)=O [Senktide, Succ-Asp-Phe-N(Me)Phe-Gly-Leu-Met-NH2, reference compound] (Suc-DF[NMeF]GLM-NH2) | 49 ± 14.9 nM | 49 ± 14.9 nM | 20.1 ± 15.1 nM | 20.1 ± 15.1 nM | 2.67 ± 1.44 nM | 2.68 ± 1.44 nM | 2.72 ± 1.54 nM | 2.72 ± 1.54 nM | less pronounced | > 200000 nM |  |  |  | 
11.9 nM | CC[C@H](C)[C@H](NC(=O)[C@H](CC(=O)O)NC(=O)CCC(=O)O)C(=O)N[C@@H](Cc1ccccc1)C(=O)N(C)[C@H](C(=O)NCC(=O)N[C@@H](CC(C)C)C(=O)N[C@@H](CCSC)C(N)=O)C(C)C [zfNKBa-analog, Succ-Asp-Ile-Phe-N(Me)Val-Gly-Leu-Met-NH2] (Suc-DIF[NMeV]GLM-NH2) |  | 6.94 ± 1.28 nM |  | 11.9 ± 16.9 nM |  | 0.15 ± 0.19 nM |  | 0.29 nM |  |  | significant increase | significant increase | significantly increased | significant elevation; also recorded: increased the level of LH significantly
